38 compounds from patent US20220204495A1, “INHIBITING TRABID” (Valo Health, Inc., priority 2019, published 2022) can be followed below.

The target of the assay is T1, TRABID(245-697) (Homo sapiens, UniProt Q9UGI0).
T1 construct: 10 nM TRABID(245-697) and 25 nM Ub-Rh110MP (UbiQ, UbiQ-126) final concentrations
T1 sequence (Q9UGI0 245-697): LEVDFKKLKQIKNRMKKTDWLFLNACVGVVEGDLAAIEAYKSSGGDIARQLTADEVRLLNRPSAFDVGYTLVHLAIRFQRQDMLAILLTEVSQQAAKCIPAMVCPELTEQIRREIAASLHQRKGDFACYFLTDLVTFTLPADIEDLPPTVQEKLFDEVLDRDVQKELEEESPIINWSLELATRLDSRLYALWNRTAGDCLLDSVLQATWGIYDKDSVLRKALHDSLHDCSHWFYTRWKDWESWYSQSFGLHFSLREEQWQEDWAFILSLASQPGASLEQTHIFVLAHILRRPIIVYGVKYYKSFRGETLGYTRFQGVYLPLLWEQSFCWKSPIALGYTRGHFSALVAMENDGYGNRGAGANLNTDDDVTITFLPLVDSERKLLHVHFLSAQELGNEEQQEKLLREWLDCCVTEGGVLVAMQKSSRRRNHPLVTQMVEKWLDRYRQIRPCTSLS
The assay is described as follows: TRABID inhibition biochemical assay (Ub-Rh110MP fluorescence). The settings on record: 10 nM TRABID(245-697), 25 nM Ub-Rh110MP, 30 minutes preincubation with compound, 10-point 3-fold series 26.6 μM to 1.35 nM. How it is done: TRABID enzymatic assays were performed in a final volume of 6 μL in buffer containing 20 mM Tris-HCl pH 8.0, (Corning 46-031-CM), and 1 mM GSH (Sigma, G4251), 0.03% BGG (Sigma, G7516), and 0.01% Triton X-100 (Sigma, 93443). Test compounds were serially diluted in DMSO (Sigma, G7516) to obtain 10-point, 3-fold series. Nanoliter quantities were pre-dispensed into 1536 assay plates (Corning, 9110BC) for the concentration response range, 26.6 μM to 1.35 nM. 3 μL of 2× enzyme was added to the assay plates, preincubated with compound for 30 minutes and then 3 μL of 2× substrate was added to initiate the reaction (10 nM TRABID(245-697) and 25 nM Ub-Rh110MP (UbiQ, UbiQ-126) final concentrations). Enzyme and substrate concentrations and incubation times were optimized for the maximal signal-to-background while maintaining linear initial velocity conditions at a fixed substrate concentration below Km.
Fluorescence signal was measured on an EnVision Plate Reader (PerkinElmer) equipped with 485 nm excitation filter and 535 nm emission filters.
Rates were calculated by: rate=((final FLU−initial FLU)/600 seconds) where final FLU=fluorescence at time 10 minutes, initial FLU=fluorescence at time 0 minutes and 600=duration of reaction in seconds.
Data were reported as percent inhibition compared with control wells based on the following equation: % inh=[…] where rate=measured rate of fluorescence generated during assay, AveLow=average rate of no enzyme control (n=32), and AveHigh=average rate of DMSO control (n=32).
IC50 values were determined by curve fitting of the standard 4 parameter logistic fitting algorithm included in the Activity Base software package (IDBS) using XE Designer equation Model 205. Data were fitted using the Levenburg Marquardt algorithm.
With `COc1ccc(-c2cc(C(=O)N3CC[C@@]4(CC4NC#N)C3)on2)cc1` (some centres unmarked) [Compound 34], the IC50 was 5660 nM.

Take `N#CNC[C@H]1CCN(C(=O)c2csc(-c3ccc(Cl)cc3Cl)n2)C1` [Compound 11]: the IC50 was found to be 1160 nM.

`N#CN[C@H]1[C@@H]2CN(C(=O)c3nc(-c4ccccc4)cs3)C[C@@H]21` [Compound 25]: the IC50 was 4410 nM.

On to `N#CN[C@H]1C[C@]2(CCN(C(=O)c3cc(-c4ccccn4)no3)C2)C1` (single isomer, unassigned) [Compound 45, {[(2r,4s)-6-[3-(pyridin-2-yl)-1,2-oxazole-5-carbonyl]-6-azaspiro[3.4]octan-2-yl]amino}formonitrile], for which the IC50 amounted to 8100 nM.

For `C[C@H](CNC#N)C(=O)Nc1cc(-c2ccc(-c3cnn(C)c3)cc2)no1` [Compound 18, (2R)-3-(cyanoamino)-2-methyl-N-[3-[4-(1-methylpyrazol-4-yl)phenyl]-1,2-oxazol-5-yl]propanamide], the concentration for half-maximal inhibition (IC50) was 1660 nM.

`N#CNC[C@@H]1CCCN(C(=O)c2csc(-c3ccc(Cl)cc3Cl)n2)C1` [Compound 32]: the IC50 worked out at 5270 nM.

Turning to `COc1cccc(-c2ncc(C(=O)NCCCNC#N)s2)c1` [Compound 5, N-[3-(cyanoamino)propyl]-2-(3-methoxyphenyl)-1,3-thiazole-5-carboxamide], the IC50 amounted to 872 nM.

For the compound `N#CNC[C@H]1CCN(C(=O)c2csc(-c3ccccc3Oc3ccccc3)n2)C1` [Compound 2, cyano([[(3R)-1-[2-(2-phenoxyphenyl)-1,3-thiazole-4-carbonyl]pyrrolidin-3-yl]methyl])amine], the IC50 was found to be 439 nM.

As to `Cn1cc(-c2ccc(-c3cc(NC(=O)CCNC#N)on3)cc2)cn1` [Compound 15, 3-(cyanoamino)-N-[3-[4-(1-methylpyrazol-4-yl)phenyl]-1,2-oxazol-5-yl]propanamide], the IC50 came out at 1390 nM.

For `COc1ccccc1-c1ncc(NC(=O)CCCNC#N)s1` [Compound 10, 4-(cyanoamino)-N-[2-(2-methoxyphenyl)-1,3-thiazol-5-yl]butanamide], the IC50 amounted to 1160 nM.

In the case of `COc1cccc(-c2cc(C(=O)N3CC4CC4(CNC#N)C3)on2)c1` (centres unmarked) [Compound 22], the IC50 was 3400 nM.

As for `CN(CCCNC#N)C(=O)c1nc(-c2ccccc2)cs1` [Compound 48], the IC50 came to 8740 nM.

`N#CNCC12CC1CN(C(=O)c1csc(-c3ccc(Cl)cc3Cl)n1)C2` (centres unmarked) [Compound 17]: the IC50 stood at 1600 nM.

As for `COc1cccc(-c2ncc(NC(=O)CCCNC#N)s2)c1` [Compound 3, 4-(cyanoamino)-N-[2-(3-methoxyphenyl)-1,3-thiazol-5-yl]butanamide], the IC50 amounted to 743 nM.

`N#CNCC1CN(C(=O)c2csc(-c3ccc(Cl)cc3Cl)n2)C1` [Compound 29]: the IC50 came to 5160 nM.

As to `CN(C(=O)c1cnc(-c2ccccc2)s1)[C@H]1C[C@H](CNC#N)C1` (single isomer, unassigned) [Compound 20, N-methyl-2-phenyl-N-[(trans)-3-[(cyanoamino)methyl]cyclobutyl]-1,3-thiazole-5-carboxamide], the IC50 amounted to 2950 nM.

As for `N#CNC1C[C@@]12CCN(C(=O)c1csc(-c3ccc(Cl)cc3Cl)n1)C2` (some centres unmarked) [Compound 7], the IC50 came to 1060 nM.

Turning to `N#CNC[C@@H]1CCN(C(=O)c2csc(-c3ccccc3Oc3ccccc3)n2)C1` [Compound 1, cyano([[(3S)-1-[2-(2-phenoxyphenyl)-1,3-thiazole-4-carbonyl]pyrrolidin-3-yl]methyl])amine], the IC50 was 140 nM.

Regarding `N#CNC1C[C@@]12CCN(C(=O)c1nc(-c3ccccc3)cs1)C2` (some centres unmarked) [Compound 36], the IC50 worked out at 6510 nM.

For `N#CNC[C@H]1CCN(C(=O)c2nc(-c3ccccc3)cs2)C1` [Compound 46], the IC50 came out at 8470 nM.

Take `COc1ccc(-c2cc(C(=O)N3CC4CC4(CNC#N)C3)on2)cc1` (centres unmarked) [Compound 31]: the IC50 amounted to 5210 nM.

Take `Cn1cc(-c2ccc(-c3cc(NC(=O)CCCNC#N)on3)cc2)cn1` [Compound 8, 4-(cyanoamino)-N-[3-[4-(1-methylpyrazol-4-yl)phenyl]-1,2-oxazol-5-yl]butanamide]: the IC50 was found to be 1060 nM.

For `COc1cccc(-c2ncc(NC(=O)[C@H](C)CCNC#N)s2)c1` [Compound 4, (2R)-4-(cyanoamino)-N-[2-(3-methoxyphenyl)-1,3-thiazol-5-yl]-2-methylbutanamide], the IC50 turned out to be 850 nM.

On to `N#CNC[C@H]1CN(C(=O)c2csc(-c3ccc(Cl)cc3Cl)n2)CCO1` [Compound 24, Cyano({[(2S)-4-[2-(2,4-dichlorophenyl)-1,3-thiazole-4-carbonyl]morpholin-2-yl]methyl})amine], for which the half-maximal inhibitory concentration (IC50) was 4000 nM.

On to `COc1ccccc1-c1nc(C(=O)N2CC[C@@H](CNC#N)C2)cs1` [Compound 12, cyano([[(3S)-1-[2-(2-methoxyphenyl)-1,3-thiazole-4-carbonyl]pyrrolidin-3-yl]methyl])amine], for which the IC50 came to 1250 nM.

As to `C[C@@H](CNC#N)C(=O)Nc1cc(-c2ccc(-c3cnn(C)c3)cc2)no1` [Compound 19, (2S)-3-(cyanoamino)-2-methyl-N-[3-[4-(1-methylpyrazol-4-yl)phenyl]-1,2-oxazol-5-yl]propanamide], the IC50 was determined as 2590 nM.

On to `N#CN[C@H]1[C@@H]2CN(C(=O)c3csc(-c4ccc(Cl)cc4Cl)n3)C[C@@H]21` [Compound 26], for which the IC50 turned out to be 4530 nM.

On to `COc1cccc(-c2cc(C(=O)N3CC[C@@]4(CC4NC#N)C3)on2)c1` (some centres unmarked) [Compound 38], for which the IC50 stood at 520 nM.

As for `Cn1cc(-c2ccc(-c3cc(C(=O)N4CCC5(CC(NC#N)C5)C4)on3)cc2)cn1` (centres unmarked) [Compound 13, [(6-[3-[4-(1-methyl-1H-pyrazol-4-yl)phenyl]-1,2-oxazole-5-carbonyl]-6-azaspiro[3.4]octan-2-yl)amino]formonitrile], the IC50 is 1260 nM.

Turning to `COc1cccc(-c2ncc(NC(=O)[C@@H](C)CCNC#N)s2)c1` [Compound 6, (2S)-4-(cyanoamino)-N-[2-(3-methoxyphenyl)-1,3-thiazol-5-yl]-2-methylbutanamide], the IC50 amounted to 951 nM.

Regarding `N#CNC[C@H]1C[C@H](NC(=O)c2cnc(-c3ccccc3)s2)C1` [Compound 16, 2-phenyl-N-[(trans)-3-[(cyanoamino)methyl]cyclobutyl]-1,3-thiazole-5-carboxamide], the IC50 was found to be 1580 nM.

Take `N#CNCCCC(=O)Nc1cnc(-c2ccccc2Oc2ccccc2)s1` [Compound 9, 4-(cyanoamino)-N-[2-(2-phenoxyphenyl)-1,3-thiazol-5-yl]butanamide]: the half-inhibitory concentration (IC50) worked out at 1130 nM.

In the case of `COc1ccc(-c2cc(C(=O)N(C)CCCNC#N)on2)cc1` [Compound 41], the IC50 stood at 7750 nM.

For the compound `N#CNC[C@H]1CCCN1C(=O)c1csc(-c2ccc(Cl)cc2Cl)n1` [Compound 39], the IC50 is 6620 nM.

Take `N#CNC1CC2(CCN(C(=O)c3csc(-c4ccc(Cl)cc4Cl)n3)CC2)C1` [Compound 44]: the IC50 was 8000 nM.

With `COc1cccc(-c2ncc(NC(=O)[C@H](C)CNC#N)s2)c1` [Compound 43, (2R)-3-(cyanoamino)-N-[2-(3-methoxyphenyl)-1,3-thiazol-5-yl]-2-methylpropanamide], the IC50 stood at 7880 nM.

Take `COc1ccccc1-c1nc(C(=O)N2CC[C@H](CNC#N)C2)cs1` [Compound 14, cyano([[(3R)-1-[2-(2-methoxyphenyl)-1,3-thiazole-4-carbonyl]pyrrolidin-3-yl]methyl])amine]: the IC50 was 1280 nM.

For the compound `N#CN[C@H]1CC[C@@H](NC(=O)c2cccc(Oc3ccccc3)c2)C1` [Compound 40], the IC50 amounted to 7290 nM.

As a reminder, the IC50 is the concentration that inhibits the measured activity by half.
